# Residue numbers refer to the chain shown, from its start.
# Tests used:
# MsPLD [1] = target: T1, MsPLD (Moritella sp. JT01, UniProt A0A137SLD1); assay: coupled choline oxidase/peroxidase colorimetric assay ([…] nm), non-linear regression; format: biochemical; conditions: 35 °C, pH 8.0, PC 1.0-3.0 mM, 5 min; hydrolysis; free enzyme
# T1 construct: gene AKG98_3441; tag removal not mentioned
# T1 sequence (A0A137SLD1 29-578): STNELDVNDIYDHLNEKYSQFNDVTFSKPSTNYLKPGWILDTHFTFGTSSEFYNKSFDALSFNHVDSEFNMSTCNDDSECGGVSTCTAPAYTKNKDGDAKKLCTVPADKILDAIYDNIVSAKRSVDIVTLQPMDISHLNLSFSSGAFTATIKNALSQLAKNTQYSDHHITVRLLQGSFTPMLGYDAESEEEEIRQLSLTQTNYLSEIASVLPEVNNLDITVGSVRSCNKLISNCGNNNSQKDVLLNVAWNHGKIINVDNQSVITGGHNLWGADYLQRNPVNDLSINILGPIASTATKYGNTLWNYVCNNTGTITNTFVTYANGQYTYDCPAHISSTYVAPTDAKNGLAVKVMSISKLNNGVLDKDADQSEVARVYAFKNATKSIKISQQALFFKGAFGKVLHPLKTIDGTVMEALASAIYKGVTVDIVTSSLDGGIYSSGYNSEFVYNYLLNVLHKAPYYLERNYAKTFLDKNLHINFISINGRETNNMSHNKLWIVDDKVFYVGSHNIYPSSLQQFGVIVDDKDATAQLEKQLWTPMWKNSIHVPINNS
# MsPLD [2] = target: T2, MsPLD (Moritella sp. JT01, UniProt A0A137SLD1, S169C/T227C/D246C/A349C); assay: as above; format: biochemical; conditions: 35 °C, pH 8.0, PC 1.0-3.0 mM, 5 min; hydrolysis; free enzyme
# T2 construct: gene AKG98_3441; tag removal not mentioned
# T2 sequence (A0A137SLD1 29-578 S169C/T227C/D246C/A349C): T1 sequence (A0A137SLD1 29-578) with S141C, T199C, D218C, A321C
substance,measurement,setting,value
L-α-phosphatidylcholine,Km,MsPLD [1],3.44 ± 0.81 mM
same,Km,MsPLD [2],2.71 ± 0.89 mM

# — paper PMC9570233, “Improving Both the Thermostability and Catalytic Efficiency of Phospholipase D from Moritella sp. JT01 through Disulfide Bond Engineering Strategy” (International Journal of Molecular Sciences, 2022)
